According to paper PMC4978508, “Using Carbohydrate Interaction Assays to Reveal Novel Binding Sites in Carbohydrate Active Enzymes” (PLoS ONE, 2016):
Like-named read-outs stand apart in the source and are kept apart here.

Legend:
Type in all cases: binding
[1] = target: T1, GH13-3; E. coli α-amylase (Escherichia coli, UniProt P26612); assay: SPR (Biacore T100), biotinylated enzyme on streptavidin chip
T1 construct: gene amyA; commercial recombinant (Prozomix); biotinylated, on streptavidin chip; GH13 subfamily 5 implied by homology to Bacillus sp
T1 sequence (P26612 1-495): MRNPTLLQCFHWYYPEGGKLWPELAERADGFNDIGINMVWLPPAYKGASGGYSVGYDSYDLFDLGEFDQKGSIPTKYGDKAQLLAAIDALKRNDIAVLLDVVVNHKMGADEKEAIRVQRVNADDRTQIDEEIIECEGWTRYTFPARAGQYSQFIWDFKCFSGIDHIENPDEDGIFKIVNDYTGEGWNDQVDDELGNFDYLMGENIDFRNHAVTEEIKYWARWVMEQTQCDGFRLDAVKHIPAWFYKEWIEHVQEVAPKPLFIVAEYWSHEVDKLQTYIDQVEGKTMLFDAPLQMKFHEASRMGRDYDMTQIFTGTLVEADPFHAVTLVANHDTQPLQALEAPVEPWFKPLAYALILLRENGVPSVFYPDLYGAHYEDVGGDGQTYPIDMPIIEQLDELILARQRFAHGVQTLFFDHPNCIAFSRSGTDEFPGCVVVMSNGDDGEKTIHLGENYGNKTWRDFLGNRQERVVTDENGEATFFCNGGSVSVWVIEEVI
Description: SPR (Biacore T100), biotinylated enzyme on streptavidin chip on GH13-3; E. coli α-amylase

[2] = target: T2, GH13-6; pig pancreatic α-amylase (Sus scrofa, UniProt P00690); assay: as above
T2 construct: gene AMY2; native porcine pancreas enzyme from Sigma; biotinylated, on streptavidin chip
T2 sequence (P00690 16-511): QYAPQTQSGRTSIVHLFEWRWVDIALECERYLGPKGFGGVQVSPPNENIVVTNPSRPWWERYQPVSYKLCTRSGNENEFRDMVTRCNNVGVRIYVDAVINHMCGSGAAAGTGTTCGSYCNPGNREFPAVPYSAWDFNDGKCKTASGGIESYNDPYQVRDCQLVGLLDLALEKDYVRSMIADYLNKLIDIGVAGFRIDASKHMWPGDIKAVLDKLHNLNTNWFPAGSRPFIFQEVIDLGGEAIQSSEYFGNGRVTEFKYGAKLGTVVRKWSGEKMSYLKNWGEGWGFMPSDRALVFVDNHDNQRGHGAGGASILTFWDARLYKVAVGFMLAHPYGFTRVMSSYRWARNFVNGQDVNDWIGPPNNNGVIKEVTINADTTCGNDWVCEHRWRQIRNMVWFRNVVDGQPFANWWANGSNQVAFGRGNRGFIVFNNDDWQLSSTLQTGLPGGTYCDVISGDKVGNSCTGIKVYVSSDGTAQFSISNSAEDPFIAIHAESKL
Description: SPR (Biacore T100), biotinylated enzyme on streptavidin chip on GH13-6; pig pancreatic α-amylase

[3] = target: T3, GH13-5; pullulanase from Bacillus subtilis (Bacillus subtilis, UniProt C0SPA0); assay: as above
T3 construct: gene amyX; commercial recombinant (Prozomix); contains CBM48; biotinylated, on streptavidin chip
T3 sequence (C0SPA0 1-718): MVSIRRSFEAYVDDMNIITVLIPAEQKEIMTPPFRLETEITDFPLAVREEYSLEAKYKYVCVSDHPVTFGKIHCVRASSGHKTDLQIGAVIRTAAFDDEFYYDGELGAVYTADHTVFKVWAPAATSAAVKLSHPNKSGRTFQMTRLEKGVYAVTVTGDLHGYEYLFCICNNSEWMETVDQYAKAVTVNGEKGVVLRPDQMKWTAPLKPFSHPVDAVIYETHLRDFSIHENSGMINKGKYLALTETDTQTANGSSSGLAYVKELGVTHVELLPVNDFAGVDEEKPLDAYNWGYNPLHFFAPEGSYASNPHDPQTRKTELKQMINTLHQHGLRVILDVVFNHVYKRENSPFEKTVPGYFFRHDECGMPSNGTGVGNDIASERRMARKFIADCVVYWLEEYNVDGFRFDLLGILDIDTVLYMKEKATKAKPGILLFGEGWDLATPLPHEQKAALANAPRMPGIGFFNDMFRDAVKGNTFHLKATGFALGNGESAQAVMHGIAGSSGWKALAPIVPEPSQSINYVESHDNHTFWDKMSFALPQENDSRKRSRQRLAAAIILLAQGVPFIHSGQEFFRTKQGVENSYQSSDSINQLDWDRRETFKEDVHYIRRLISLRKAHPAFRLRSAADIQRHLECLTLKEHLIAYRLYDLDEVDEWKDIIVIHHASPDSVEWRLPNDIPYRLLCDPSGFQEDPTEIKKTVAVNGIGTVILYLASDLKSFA
Description: SPR (Biacore T100), biotinylated enzyme on streptavidin chip on GH13-5; pullulanase from Bacillus subtilis

[4] = target: T4, GH8-1; endoglucanase from Clostridium thermocellum (Acetivibrio thermocellus, UniProt A3DC29); assay: SPR (Biacore T100), enzyme amine-coupled to CM5 chip; settings: immobilised enzyme; ligand 10-5000 μM; weak, not saturable
T4 construct: gene celA; commercial recombinant (NZYtech), no CBM; amine-coupled to CM5 chip
T4 sequence (A3DC29 33-477): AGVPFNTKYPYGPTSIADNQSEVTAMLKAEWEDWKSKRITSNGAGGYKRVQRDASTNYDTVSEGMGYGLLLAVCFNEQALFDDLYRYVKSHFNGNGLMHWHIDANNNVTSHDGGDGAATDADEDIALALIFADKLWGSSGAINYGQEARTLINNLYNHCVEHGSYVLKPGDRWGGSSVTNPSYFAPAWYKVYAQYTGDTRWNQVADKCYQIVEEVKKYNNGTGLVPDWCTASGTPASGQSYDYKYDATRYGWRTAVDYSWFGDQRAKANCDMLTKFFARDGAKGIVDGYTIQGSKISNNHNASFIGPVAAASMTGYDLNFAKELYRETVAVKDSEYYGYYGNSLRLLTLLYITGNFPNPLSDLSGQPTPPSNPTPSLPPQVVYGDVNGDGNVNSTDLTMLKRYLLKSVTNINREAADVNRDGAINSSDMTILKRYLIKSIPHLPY

[5] = target: T5, GH6-1; endoglucanase from Thermobifida fusca (Thermobifida fusca, UniProt P26222); assay: as above; settings: one-site fit; immobilised enzyme
T5 construct: gene celB; gift of David Wilson; amine-coupled to CM5 chip
T5 sequence (P26222 32-322 limits assumed): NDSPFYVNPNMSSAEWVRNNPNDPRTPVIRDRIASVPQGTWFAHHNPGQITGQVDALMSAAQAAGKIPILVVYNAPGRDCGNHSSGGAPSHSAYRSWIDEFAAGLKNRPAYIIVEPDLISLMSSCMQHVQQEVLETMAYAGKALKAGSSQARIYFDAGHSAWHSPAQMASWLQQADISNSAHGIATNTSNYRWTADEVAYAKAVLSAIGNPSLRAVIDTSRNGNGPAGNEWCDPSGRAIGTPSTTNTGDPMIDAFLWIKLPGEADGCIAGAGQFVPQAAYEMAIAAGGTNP
Description: SPR (Biacore T100), enzyme amine-coupled to CM5 chip on GH6-1; endoglucanase from Thermobifida fusca

[6] = target: T4, GH8-1; endoglucanase from Clostridium thermocellum; assay: as above; settings: one-site fit; immobilised enzyme; stoichiometry above 2 (several sites)
Description: SPR (Biacore T100), enzyme amine-coupled to CM5 chip on GH8-1; endoglucanase from Clostridium thermocellum

[7] = target: T6, GH48-1; processive endoglucanase from Clostridium cellulolyticum (Ruminiclostridium cellulolyticum, UniProt P37698); assay: as above; settings: one-site fit; immobilised enzyme
T6 construct: gene celCCF; commercial recombinant (NZYtech), no CBM; amine-coupled to CM5 chip
T6 sequence (P37698 30-650 limits assumed): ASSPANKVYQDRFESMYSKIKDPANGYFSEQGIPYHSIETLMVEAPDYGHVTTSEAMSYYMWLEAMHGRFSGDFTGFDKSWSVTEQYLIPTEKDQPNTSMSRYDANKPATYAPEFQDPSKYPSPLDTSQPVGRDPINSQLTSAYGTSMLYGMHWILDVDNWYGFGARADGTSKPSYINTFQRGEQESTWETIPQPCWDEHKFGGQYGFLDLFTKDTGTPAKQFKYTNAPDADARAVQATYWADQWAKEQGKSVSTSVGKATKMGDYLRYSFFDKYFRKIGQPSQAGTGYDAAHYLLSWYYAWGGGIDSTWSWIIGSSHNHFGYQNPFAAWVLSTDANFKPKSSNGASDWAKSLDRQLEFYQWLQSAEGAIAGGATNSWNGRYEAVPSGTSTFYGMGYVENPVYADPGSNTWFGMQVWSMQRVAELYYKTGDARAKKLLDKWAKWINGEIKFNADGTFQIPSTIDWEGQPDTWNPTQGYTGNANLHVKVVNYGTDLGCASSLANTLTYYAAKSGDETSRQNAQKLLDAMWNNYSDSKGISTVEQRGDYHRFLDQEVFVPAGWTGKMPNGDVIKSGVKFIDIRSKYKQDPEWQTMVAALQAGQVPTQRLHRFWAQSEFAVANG
Description: SPR (Biacore T100), enzyme amine-coupled to CM5 chip on GH48-1; processive endoglucanase from Clostridium cellulolyticum

Compound: OC[C@H]1O[C@@H]2O[C@H]3[C@H](O)[C@@H](O)[C@@H](O[C@H]4[C@H](O)[C@@H](O)[C@@H](O[C@H]5[C@H](O)[C@@H](O)[C@@H](O[C@H]6[C@H](O)[C@@H](O)[C@@H](O[C@H]7[C@H](O)[C@@H](O)[C@@H](O[C@H]8[C@H](O)[C@@H](O)[C@@H](O[C@H]1[C@H](O)[C@H]2O)O[C@@H]8CO)O[C@@H]7CO)O[C@@H]6CO)O[C@@H]5CO)O[C@@H]4CO)O[C@@H]3CO [β-cyclodextrin]
- Kd [1]: 1360 ± 50 µM
- Kd [2]: 870 ± 400 µM
- Kd [3]: 970 ± 130 µM

Compound: OC[C@H]1O[C@H](O[C@H]2[C@H](O)[C@@H](O)[C@@H](O[C@H]3[C@H](O)[C@@H](O)[C@@H](O[C@H]4[C@H](O)[C@@H](O)C(O)O[C@@H]4CO)O[C@@H]3CO)O[C@@H]2CO)[C@H](O)[C@@H](O)[C@@H]1O (stereo partly drawn) [maltotetraose]
- NS [4]: GH8-1 interacts weakly with these oligosaccharides

Compound: OC1OC[C@@H](O[C@@H]2OC[C@@H](O[C@@H]3OC[C@@H](O[C@@H]4OC[C@@H](O)[C@H](O)[C@H]4O)[C@H](O)[C@H]3O)[C@H](O)[C@H]2O)[C@H](O)[C@H]1O (stereo partly drawn) [xylotetraose]
- NS [4]: GH8-1 interacts weakly with these oligosaccharides

Compound: OC[C@H]1O[C@H](O[C@H]2[C@H](O)[C@@H](O)[C@@H](O[C@H]3[C@H](O)[C@@H](O)[C@@H](O[C@H]4[C@H](O)[C@@H](O)[C@@H](O[C@H]5[C@H](O)[C@@H](O)[C@@H](O[C@H]6[C@H](O)[C@@H](O)C(O)O[C@@H]6CO)O[C@@H]5CO)O[C@@H]4CO)O[C@@H]3CO)O[C@@H]2CO)[C@H](O)[C@@H](O)[C@@H]1O (stereo partly drawn) [maltohexaose]
- Kd ([2]; one-site fit, immobilised enzyme, stoichiometry above 1 (several sites)): 1330 ± 120 µM

Compound: OC[C@H]1O[C@@H](O[C@H]2[C@H](O)[C@@H](O)[C@H](O[C@H]3[C@H](O)[C@@H](O)[C@H](O[C@H]4[C@H](O)[C@@H](O)[C@H](O[C@H]5[C@H](O)[C@@H](O)C(O)O[C@@H]5CO)O[C@@H]4CO)O[C@@H]3CO)O[C@@H]2CO)[C@H](O)[C@@H](O)[C@@H]1O (stereo partly drawn) [cellopentaose]
- Kd [5]: 330 ± 110 µM
- Kd [6]: 860 ± 90 µM
- Kd [7]: 2070 ± 780 µM
